Assay [1] deals with CDK9/Cyclin T (Homo sapiens, UniProt P50750). Kind of assay: CDK9/Cyclin T kinase assay (Nanosyn, Caliper microfluidic). It counts as biochemical. As to conditions: 12-point dose-response, ATP at Km (10 μM), 17 hr; Table 6. As to the method:
(§1) Selected compounds disclosed herein were tested in kinase assays by Nanosyn (Santa Clara, Calif.) to determine their inhibitory effect on selected CDKs. The assays were performed using microfluidic kinase detection technology (Caliper Assay Platform). The compounds were tested in 12-point dose-response format in singlicate at Kmfor ATP. Phosphoacceptor substrate peptide concentration used was 1 μM for all assays and Staurosporine was used as the reference compound for all assays. Specifics of each assay are as described below: CDK7/Cyclin Ti: Enzyme concentration: 5 nM; ATP concentration: 10 μM; Incubation time: 17 hr.

The target in assay [2] is CDK4/Cyclin D1 (Homo sapiens, UniProt P11802). The assay is described as follows: CDK4/Cyclin D1 kinase assay (Nanosyn, Caliper microfluidic). As to conditions: 12-point dose-response, ATP at Km (200 μM), 3 hr; Table 6. The assay is classed as biochemical. As to the method: as §1, with “CDK4/Cyclin D1:” for “CDK7/Cyclin Ti:”, “1” for “5”, “200” for “10”, “3” for “17”
Sequence of CDK4/Cyclin D1 (P11802 whole entry): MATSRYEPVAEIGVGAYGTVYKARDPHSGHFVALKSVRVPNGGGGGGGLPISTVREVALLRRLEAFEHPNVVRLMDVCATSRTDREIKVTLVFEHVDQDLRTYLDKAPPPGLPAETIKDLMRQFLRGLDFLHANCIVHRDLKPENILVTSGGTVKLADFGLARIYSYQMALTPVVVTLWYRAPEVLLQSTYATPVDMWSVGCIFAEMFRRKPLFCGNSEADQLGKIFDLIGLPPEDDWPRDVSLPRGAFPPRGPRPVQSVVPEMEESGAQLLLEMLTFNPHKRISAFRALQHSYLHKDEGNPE
Sequence of CDK4/Cyclin D1 (P24385 whole entry partner): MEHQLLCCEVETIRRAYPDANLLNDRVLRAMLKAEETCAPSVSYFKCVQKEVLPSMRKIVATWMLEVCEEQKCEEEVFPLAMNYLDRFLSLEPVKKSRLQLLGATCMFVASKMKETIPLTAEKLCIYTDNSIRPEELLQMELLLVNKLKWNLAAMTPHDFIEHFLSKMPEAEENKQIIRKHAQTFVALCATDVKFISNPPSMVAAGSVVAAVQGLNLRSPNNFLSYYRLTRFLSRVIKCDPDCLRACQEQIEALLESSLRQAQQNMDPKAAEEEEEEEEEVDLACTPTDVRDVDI

Sequence of CDK9/Cyclin T (P50750 whole entry): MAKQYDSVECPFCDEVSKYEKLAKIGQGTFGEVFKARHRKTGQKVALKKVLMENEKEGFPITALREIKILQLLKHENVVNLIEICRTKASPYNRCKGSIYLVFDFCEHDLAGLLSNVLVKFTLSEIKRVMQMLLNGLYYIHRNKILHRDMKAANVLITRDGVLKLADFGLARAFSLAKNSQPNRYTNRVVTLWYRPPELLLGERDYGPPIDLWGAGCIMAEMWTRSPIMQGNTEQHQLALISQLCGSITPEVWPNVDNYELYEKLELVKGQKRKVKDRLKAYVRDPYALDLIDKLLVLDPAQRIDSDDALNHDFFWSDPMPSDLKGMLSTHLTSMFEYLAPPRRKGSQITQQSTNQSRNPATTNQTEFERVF
Sequence of CDK9/Cyclin T (O60563 whole entry partner): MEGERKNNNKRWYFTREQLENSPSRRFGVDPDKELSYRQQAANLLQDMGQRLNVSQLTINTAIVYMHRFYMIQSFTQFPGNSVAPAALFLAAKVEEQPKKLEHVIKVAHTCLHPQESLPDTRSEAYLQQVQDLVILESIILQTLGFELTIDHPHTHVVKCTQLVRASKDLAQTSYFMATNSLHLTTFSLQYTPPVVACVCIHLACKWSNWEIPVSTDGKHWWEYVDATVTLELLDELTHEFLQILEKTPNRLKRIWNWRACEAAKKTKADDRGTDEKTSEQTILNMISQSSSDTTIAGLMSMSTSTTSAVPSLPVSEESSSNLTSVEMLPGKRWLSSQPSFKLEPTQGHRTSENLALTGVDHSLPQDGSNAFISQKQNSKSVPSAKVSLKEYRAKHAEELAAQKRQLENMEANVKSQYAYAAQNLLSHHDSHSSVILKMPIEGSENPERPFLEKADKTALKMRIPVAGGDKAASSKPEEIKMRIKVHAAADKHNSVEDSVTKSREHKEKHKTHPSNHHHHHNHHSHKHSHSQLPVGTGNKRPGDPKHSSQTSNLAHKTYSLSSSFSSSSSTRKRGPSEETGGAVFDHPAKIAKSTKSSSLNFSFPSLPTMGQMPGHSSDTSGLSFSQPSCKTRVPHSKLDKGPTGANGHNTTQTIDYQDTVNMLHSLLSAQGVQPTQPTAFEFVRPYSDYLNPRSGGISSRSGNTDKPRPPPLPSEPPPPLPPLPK

Turning to `O=C1NCC2(CCCCC2)n2c1cc1cnc(N[C@H]3CC[C@H](N4CCC(C(F)(F)F)CC4)CC3)nc12` [Compound 56, 2′-(((1r,4r)-4-(4-(trifluoromethyl)piperidin-1-yl)cyclohexyl)amino)-7′,8′-dihydro-6′H-spiro[cyclohexane-1,9′-pyrazino[1′,2′:1,5]pyrrolo[2,3-d]pyrimidin]-6′-one], the IC50 worked out at 4 nM in assay [1] and 27 nM in assay [2].

On to `CC(C)(C)N1CCN([C@H]2CC[C@H](Nc3ncc4cc5n(c4n3)C3(CCCCC3)CNC5=O)CC2)CC1` [Compound 57, 2′-(((1r,4r)-4-(4-(tert-butyl)piperazin-1-yl)cyclohexyl)amino)-7′,8′-dihydro-6′H-spiro[cyclohexane-1,9′-pyrazino[1′,2′:1,5]pyrrolo[2,3-d]pyrimidin]-6′-one], for which the values for the IC50 in assay [1] and in assay [2] were 3 nM and 5 nM, respectively.

Molecule `O=C1NCC2(CCCCC2)n2c1cc1cnc(N[C@H]3CC[C@H](N4CCN(C5CC5)CC4)CC3)nc12` [Compound 58, 2′-(((1r,4r)-4-(4-cyclopropylpiperazin-1-yl)cyclohexyl)amino)-7′,8′-dihydro-6′H-spiro[cyclohexane-1,9′-pyrazino[1′,2′:1,5]pyrrolo[2,3-d]pyrimidin]-6′-one] yielded an IC50 in assay [2] of 33 nM.

As for `O=C1NCC2(CCCCC2)n2c1cc1cnc(N[C@H]3CC[C@H](N4CCN(C5CCCC5)CC4)CC3)nc12` [Compound 59, 2′-(((1r,4r)-4-(4-cyclopentylpiperazin-1-yl)cyclohexyl)amino)-7′,8′-dihydro-6′H-spiro[cyclohexane-1,9′-pyrazino[1′,2′:1,5]pyrrolo[2,3-d]pyrimidin]-6′-one], the IC50 in assay [1] was 2 nM; in assay [2], 4 nM.

Take `O=C1NCC2(CCCCC2)n2c1cc1cnc(N[C@H]3CC[C@H](N4CCN(c5ccc(F)cc5)CC4)CC3)nc12` [Compound 60, 2′-(((1r,4r)-4-(4-(4-fluorophenyl)piperazin-1-yl)cyclohexyl)amino)-7′,8′-dihydro-6′H-spiro[cyclohexane-1,9′-pyrazino[1′,2′:1,5]pyrrolo[2,3-d]pyrimidin]-6′-one]: the IC50 in assay [1] turned out to be 3 nM; in assay [2], 13 nM.

Regarding `O=C1NCC2(CCCCC2)n2c1cc1cnc(N[C@H]3CC[C@H](N4CCN(CC5CCCCC5)CC4)CC3)nc12` [Compound 61, 2′-(((1r,4r)-4-(4-(cyclohexylmethyl)piperazin-1-yl)cyclohexyl)amino)-7′,8′-dihydro-6′H-spiro[cyclohexane-1,9′-pyrazino[1′,2′:1,5]pyrrolo[2,3-d]pyrimidin]-6′-one], in assay [2], the IC50 turned out to be 13 nM.

Regarding `O=C1NCC2(CCCCC2)n2c1cc1cnc(N[C@H]3CC[C@H](N4CCN(C(=O)C5CC5)CC4)CC3)nc12` [Compound 62, 2′-(((1r,4r)-4-(4-(cyclopropanecarbonyl)piperazin-1-yl)cyclohexyl)amino)-7′,8′-dihydro-6′H-spiro[cyclohexane-1,9′-pyrazino[1′,2′:1,5]pyrrolo[2,3-d]pyrimidin]-6′-one], in assay [2], half-maximal inhibition (IC50) was put at 20 nM.

Values taken from patent publication US20200331925A1, “HETEROCYCLIC COMPOUNDS FOR THE TREATMENT OF ABNORMAL CELLULAR PROLIFERATION” (G1 Therapeutics, Inc., priority 2018, published 2020).
